Results on three compounds are retold here after patent US20190284129A1, “LIPID COMPOUNDS AND COMPOSITIONS AND THEIR OPTHALMIC USE” (BIOZEP AS, priority 2015, published 2019).

Molecules are shown by their SMILES.

Common to all, as to type: cell-based
Data set [1] concerns the target T1, human PPARα (Homo sapiens, UniProt Q07869).
T1 construct: expressed in transfected cells
T1 sequence (Q07869 239-466 limits assumed): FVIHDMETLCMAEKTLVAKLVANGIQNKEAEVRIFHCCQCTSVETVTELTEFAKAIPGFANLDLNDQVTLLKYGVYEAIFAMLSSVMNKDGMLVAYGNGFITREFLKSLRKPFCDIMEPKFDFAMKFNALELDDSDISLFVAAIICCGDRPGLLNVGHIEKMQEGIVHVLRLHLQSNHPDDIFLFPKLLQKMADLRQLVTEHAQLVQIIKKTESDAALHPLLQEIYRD
The data set can be described thus: stable reporter HeLa cell line, GAL4-PPARα ligand activity. The following applies: 5 μM compound, relative to 1 μM GW7647; FIG. 6. The text has this:
(§1) To screen the human PPARα, PPARδ and PPARγ ligand activity of the compounds a stable reporter cell line was used (HeLa cell line). The stable reporter cell line express respectively a chimeric protein containing the ligand binding domain (LBD) of human PPARα, human PPARδ and human PPARγ fused to the yeast transactivator GAL4 DNA binding domain (DBD). The luciferase (Luc) reporter gene is driven by a pentamer of the GAL4 recognition sequence in front of a β-globin promoter. The use of GAL4-PPARα, GAL4-PPARδ and GAL4-PPARγ chimeric receptors allows for elimination of background activity from endogenous receptors and quantification of relative activity across the three PPAR subtypes with the same reporter gene. […] Luciferase activity was measured by a luminometer and luciferase activity was expressed as relative light units (RLU).
Day 1: Seed 96—well plate with PPAR cells. Cell appearance was checked using optical microscopy. Cells were cultivated at confluency (80-100%).
Day 2: The test articles dissolved in DMSO were added to the cells. The controls (positive controls and the solvent control) were included in each individual plate. […]
Day 3: To determine the PPAR subtype activity of the tested compounds, the percentage of PPAR ligand activity was calculated for each tested compound as follows: […]

Data set [2] has as its target T2, human PPARγ (Homo sapiens, UniProt P37231).
T2 construct: expressed in transfected cells
T2 sequence (P37231 238-503 limits assumed): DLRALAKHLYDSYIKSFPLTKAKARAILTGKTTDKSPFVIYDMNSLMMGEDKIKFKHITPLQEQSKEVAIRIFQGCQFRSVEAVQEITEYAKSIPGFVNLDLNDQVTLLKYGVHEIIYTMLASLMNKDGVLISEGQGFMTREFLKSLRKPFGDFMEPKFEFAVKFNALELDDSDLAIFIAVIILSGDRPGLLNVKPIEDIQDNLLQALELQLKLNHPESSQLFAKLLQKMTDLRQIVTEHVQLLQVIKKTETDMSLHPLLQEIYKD
The data set is described as follows: stable reporter HeLa cell line, GAL4-PPARγ ligand activity. The conditions noted are these: 5 μM compound, relative to 1 μM BRL49653; FIG. 7.
Excerpt: as §1
Day 1: Seed 96—well plate with PPAR cells. Cell appearance was checked using optical microscopy. Cells were cultivated at confluency (80-100%). […]
Day 3: To determine the PPAR subtype activity of the tested compounds, the percentage of PPAR ligand activity was calculated for each tested compound as follows:
Percentage of PPARγ activity for the tested compound in 5 μM concentration=(RLUXcomp×100)/RLUBRL49653 where RLUBRL49653 is the luminescence measured from PPARγ cells incubated with 1 μM […] and expressed as Relative Light Units. […]

Data set [3] deals with NF-κB pathway. The data set is described as follows: NF-κB luciferase reporter assay in NF-κB Reporter-HEK293 cells, TNFa stimulated. The following applies: FIG. 5. From the text: The NF-κB reporter (luc)-HEK293 cell line is designed for monitoring the nuclear factor Kappa B (NF-κB) signal transduction pathways. It contains a firefly luciferase gene driven by four copies of NF-κB response element located upstream of the minimal TATA promoter. After activation by pro-inflammatory cytokines or stimulants of lymphokine receptors, endogenous NF-κB transcription factors bind to the DNA response elements, inducing transcription of the luciferase reporter gene.
NF-κB Reporter-HEK293 cells were cultured in MEM medium with 10% FBS, 1% non-essential amino acids, 1 mM Na-pyruvate, 1% Penn-strep, and 100 µg/ml of Hygromycin B.
To perform the NF-κB luciferase reporter assay, NF-κB Reporter-HEK293 cells were seeded at 40,000 cells per well into white clear-bottom 96-well microplate in 45 μl of growth medium without Hygromycin B. Cells were incubated at 37° C. and 5% CO2 overnight to allow them to recover and reattach. The following day a series of dilutions of compounds were made in assay medium (MEM medium with 0.5% FBS, 1% non-essential amino acids, 1 mM Na-pyruvate, 1% Penn-strep). The medium was removed from the wells and 45 μl of diluted compound was added to the cells. Assay medium with DMSO was added to the untreated control wells and cell-free control wells. The final concentration of DMSO was 0.25%. The cells were incubated overnight at 37° C. in CO2 incubator. […]
After treatment, cells were then lysed and a luciferase assay was performed using the ONE-Step luciferase assay system. […] Luminescence was measured using a luminometer (BioTek Synergy™ 2 microplate reader).
Reporter assays were performed in triplicate at each concentration. The luminescence intensity data were analyzed using the computer software, Graphpad Prism. In the absence of the compound, the luminescence intensity (Lt) in each data set was defined as 100%. In the absence of cells, the luminescence intensity (Lb) in each data set was defined as 0%. The percent luminescence in the presence of each compound was calculated according to the following equation: % Luminescence=(L−Lb)/(Lt−Lb), where L=the luminescence intensity in the presence of the compound, Lb=the luminescence intensity in the absence of cells, and Lt=the luminescence intensity in the absence of the compound. The values of % luminescence versus a series of compound concentrations were then plotted using non-linear regression analysis of a Sigmoidal dose-response curve generated with the equation Y=B+(T B)/1+10^((Log EC50-X)×Hill Slope), where Y=percent luminescence, B=minimum percent luminescence, T=maximum percent luminescence, X=logarithm of compound and Hill Slope=slope factor or Hill coefficient. The IC50 value was determined by the concentration causing a half-maximal percent activity.
(In general: Reporter assays use an easily measured gene product as a stand-in for the process of interest.)

Data set [4] deals with ARPE-19 cells. The data set can be described thus: oxidative stress (tert-butyl hydroperoxide) cytolysis assay in ARPE-19 retinal pigment epithelial cells. How it is done:
In order to evaluate the potential of BIZ-101 to protective the eye from oxidative stress damage the compound was tested in a cell based assay. Oxidative stress was induced in an ARPE-19 cell line using tert-butyl hydroperoxide at different concentrations. The cellular viability was kinetically monitored and measured by analysing the plasma membrane integrity based on the incorporation of a non-permeant and fluorescent DNA intercalating agent that selectively stain cytolytic cells with comprised plasma membranes.
(§2) The ARPE-19 cell line was seeded and cultured in DMEM-F12 medium+10% SVF for 24 hrs in a 96 well plate. Cells were pre-treated or not with either fenofibric acid (25 μM) or compound BIZ-101 (10 μM) during this 24 hr period. After 24 hrs, the different concentrations of t-butyl hydroperoxide were added in the presence of a fluorescent DNA intercalating agent for the following monitoring. Live content time-lapse imaging was performed with a sampling rate of 1 image every 2 hr over a 96 hrs period. The number of fluorescent/cytolytic cells were counted and reported during the experiment. The treatment conditions were tested in one experiment session in a triplicate format.
Fenofibric acid was used at 25 μM and was ordered from Sigma Aldrich. The day of the pre-treatment, a 25 mM stock solution of fenofibric acid was prepared in DMSO and diluted in the complete culture medium at 25 μM. 100 μL of this solution or 100 μL of complete culture medium+0.1% DMSO replaced the 100 μL of the complete culture medium already present in the well. The day of the treatment with t-butyl hydroperoxide, a 2 times concentrated solution of fenofibric acid was freshly diluted in the complete culture medium and 50 μL of this solution or 50 μL of complete culture medium+0.2% DMSO were added to the 100 μL of the culture medium already present in the well.
Compound BIZ-101 was tested at a final concentration of 10 μM. A 10 mM predilution was prepared in DMSO from a 10 mM stock solution. The 10 mM solution of BIZ 101 was diluted in the complete culture medium at 10 μM. 100 μL, of this solution or 100 μL of the complete culture medium+0.1% DMSO replaced the 100 μL, of the complete culture medium already present in the well. The day of the treatment with t-butyl hydroperoxide, a 2 times concentrated solution of BIZ 101 was freshly diluted in the complete culture medium and 50 μL of this solution or 50 μL of complete culture medium+0.2% DMSO were added to the 100 μL of the culture medium already present in the well.
Preparation of the tert-butyl hydroperoxide [tBHP] solution: 0, 0.01 mM, 0.03 mM, 0.1 mM, 0.3 mM, 1 mM, 3 mM and 10 mM. A 4 times concentrated solution of tBHP was freshly diluted in the complete culture medium for each of the concentrations to be tested. 50 μL of the 4 times concentrated solution was added to the 150 μL of the cultured medium.
In order to evaluate the potential of BIZ-102 to protect the eye from oxidative stress damage the compound was tested in a cell based assay similar to Example 24 with the following changes. The oxidative stress in the ARPE-19 cell line was induced by using 3 different concentrations of tBHP: 10 μM, 30 μM and 100 μM and BIZ-102 was tested in 2 different concentrations: 1 μM and 10 μM.
as §2, with “with” for “with either fenofibric acid (25 μM) or”, “BIZ-102 (1 μM and 10” for “BIZ-101 (10”
Compound BIZ-102 was tested at a final concentration of 1 and 10 μM. […]

For data set [5], the system named is neuroblastoma cells. The data set can be described thus: mitochondrial DNA damage in neuroblastoma cells (RT-qPCR, TaqI cleavage). The following applies: 10 μM compound, 24 hours, high glucose (20 mM); FIG. 3. How it is done: In this study, neuroblastoma cells were cultivated at near confluency (50-75%) in DMEM/F12/10% serum high glucose (20 mM) supplied with 10 μM BIZ-101 or BIZ-105 for 24 hours prior to analyses. These conditions readily induce mtDNA damage that is representative of that accumulating during aging as the result of age-associated oxidative stress.
For DNA damage analyses, cells were washed, and DNA isolated using Qiagen Blood&Tissue DNA isolation kit. DNA damage level was analyzed by a RT-qPCR method based on the ability of DNA lesions to inhibit restriction enzyme cleavage, as described previously (http://www.ncbi.nlm.nih.gov/pubmed/25631007) using primers 5′-[…]-3′ and 5′-[…]-3′ (sense and anti sense, respectively). Briefly, genomic DNA (6 ng) was treated with 1 U TaqI for 15 min at 65° C. DNA damage frequency was calculated as 2exp−(ctTaql−ctnt), where ctTaql and ctnt represent CT values of TaqI-treated and non-treated genomic DNA, respectively.
Background: Quantitative PCR measures a nucleic acid by following its amplification.

As to `CC/C=C\C/C=C\C/C=C\C/C=C\C/C=C\CCOCC(=O)O` [BIZ-108, 3-oxa-(6Z,9Z,12Z,15Z,18Z)-heneicosa-(6,9,12,15,18)-pentaenoic Acid], the PPARα activity result in data set [1] was “all compounds except BIZ-108 had potent activity”. In addition, the PPARγ activation result in data set [2] is given as “activated PPARγ except for the unsubstituted derivative BIZ-108”.

As for `CC/C=C\C/C=C\C/C=C\C/C=C\C/C=C\CCC(CC)C(=O)O` (stereo not shown) [BIZ-101, 2-ethyleicosa-(all-Z)-5,8,11,14,17-pentaenoic Acid], in data set [3], the “dose dependence of inhibitory effect on the NF-κB pathway” value was “dose dependent”. Besides, the “complete inhibition of the NF-κB pathway” value in data set [3] (at high concentration) is “completely inhibited”. In addition, the “dose dependent cytotoxicity of tBHP” value in data set [4] (6 hrs after addition of tBHP, 24 hr pre-treatment, fenofibric acid 25 μM, BIZ-101 10 μM) is “slightly decreased”. In addition, the “protective effects against tBHP cytotoxicity” value in data set [4] (24 hrs after addition of t-BHP, fenofibric acid 25 μM, BIZ-101 10 μM) is given as “more efficient”. Moreover, the “protective effect compared with fenofibric acid” value in data set [4] (BIZ-101 10 μM vs fenofibric acid 25 μM) was “much more potent”. Further, in data set [4] (overall conclusion), the “effect on retinal pigment epithelial cells during conditions of oxidative stress” value is “protective effect”. Also, in data set [5], the mtDNA damage entry was “reduced mtDNA damage”.

Consider `CC/C=C\C/C=C\C/C=C\C/C=C\C/C=C\C/C=C\CC(C)C(=O)O` (stereo not shown) [BIZ-105, 2-methyldocosa-(all-Z)-4,7,10,13,16,19-hexaenoic Acid], for which the mtDNA damage result in data set [5] is “slightly reduced level of mtDNA damage”.
